# Data from US20230204565A1, “Methods for Culturing Cancer Cells and for Inhibiting Invasion of Cancer” (The Regents of the University of California, priority 2020, published 2023).
# “Also recorded” adds a separate entry of the source.
# What was measured:
# PTPRZ1 = test: Validation of knockdown (immunofluorescence, Western blot, qPCR); type: cell-based, human; conditions: vs scrambled control hairpin
# Method: FIG. 12B. Transplants of primary glioblastoma tumors into cortical organoids. […] Western blot and qPCR to validate knockdown (quantified across 3 replicates for qPCR) were also performed.
# [1] = tested on: primary developing human cortex cells and primary glioblastoma cells; test: Single-cell RNA sequencing after PTPRZ1 knockdown; type: cell-based; conditions: primary and glioblastoma samples
# Excerpt: FIG. 5F. Sorting for PTPRZ1 positive cells enriches for oRG-like cells. Workflow of single-cell sequencing is shown. PTPRZ1 KD and a scrambled control were used to knockdown PTPRZ1 in both primary developing human cortex cells and primary glioblastoma cells. […] (* = p-value < 0.05). […] These changes were accompanied by a significant downregulation of several outer radial glia marker genes.
# Primary cells (GW 17, n = 2) and primary tumor samples (n = 2) were dissociated and infected with lentivirus either with a hairpin against PTPRZ1 mRNA or a control hairpin during plating. Cells were maintained in their normal media conditions for 1 week, after which cells were removed from the plate with trypsinization, dissociated into a single-cell suspension, and captured with 10X v2 single-cell as previously described.
# To better understand the molecular mechanism of PTPRZ1 signaling in glioblastoma tumor propagation, and to characterize how these cells differ from normal radial glia, in vitro KD was performed of PTRPZ1 in dissociated cell culture of primary developing cortex, primary tumor dissociated cell culture, and PDX dissociated cell culture. […] Each control/treatment pair was analyzed individually and the radial glia populations were isolated for further examination (FIG. 5F). […]
# [2] = Proliferation, cell titer blue assay; type: cell-based; conditions: any time point, n=5
# Excerpt: FIG. 12D. Transplants of primary glioblastoma tumors into cortical organoids. Proliferation as indicated by cell titer blue assay is shown for PTPRZ1 shScr (Ctrl) or shPTPRZ1 (KD). […] On the right, an invasion well with white lines added to mark the bounds of the invasion chamber.
# [3] = tested on: patient derived xenograft (PDX) line DBTRGFL; test: In vitro invasion assay (gap filling); type: cell-based, human; conditions: imaged every 24 hours, Day 0 to Day 3, vs scrambled shRNA control
# Method: FIG. 6B. PTPRZ1 Promotes MST driven invasiveness of glioblastoma. Invasion assays of patient derived xenograft (PDX) line DBTRGFL were performed with control (scrambled shRNA), PTPRZ1 knockdown (shRNA) and Rock Inhibition. Invasions were imaged every 24 hours, and Day 0 and Day 3 are shown. Quantification was performed by calculating how much of the gap was filled. Statistics were performed for both PTPRZ1 knockdown and Rock inhibition, and statistics are showing for Rock inhibition on top and PTPRZ1 knockdown below (* = p <0.05, ** p < 0.01, *** p < 0.001, Student’s two-sided t-test).
# PTPRZ1 and its ligand, PTN, are identified in this disclosure as necessary for tumor invasion and viability. It was tested whether the expression of PTPRZ1 is required for the role of oRG-like cells in glioblastoma invasion using genetic and pharmacologic approaches. Previous work has linked PTPRZ1 and PTN with the Rho/Rho-kinase (ROCK) signaling pathway in glioblastoma. […] Given that the functional significance of key oRG markers such as PTPRZ1 remains unknown, and the role of MST has not been previously described in glioblastoma, the role of PTPRZ1/PTN signaling in oRG cell behavior was studied. shRNA mediated knock down of both PTPRZ1 and PTN in oRG cells was used during normal human development and the impact on MST was monitored. […]
# [4] = tested on: DBTRGFL patient derived xenograft line; test: Time-lapse imaging of MST after shRNA knockdown in PDX line; type: cell-based, human; conditions: 4 technical replicates
# Method: FIG. 6A. PTPRZ1 Promotes MST driven invasiveness of glioblastoma.
# Dissociated tumor cells were seeded onto matrigel coated glass bottom wells. 24 hours after plating cells were infected with a CMV-adeno-GFP virus (Vector Biolabs) to allow for visualization of cell morphology and behavior. Cell were cultured at 37° C., 5% CO2, and 8% O2, and monitored for GFP and expression (~ 24 to 48 h). Cultured cells were then transferred to an inverted Leica TCS SP5 with an on-stage incubator (while streaming 5% CO2, 5% O2, balance N2 into the chamber), and imaged in both the GFP and transmitted light channels using a × 10 objective at 15-20 min intervals for up to 4. Movies were analyzed with Imaris.
# oRG cells = test: Time-lapse imaging of mitotic somal translocation (MST) after shRNA knockdown, primary cortical slice culture; type: cell-based, human; conditions: for length of MST (somal translocation length): oRG cells during normal human development, primary slice culture, vs scrambled control hairpin
# Excerpt: As described by Hansen et al. (2010), human fetal brain tissue was collected and transported in artificial CSF (ACSF; 125 mm NaCl, 2.5 mm KCI, 1 mm MgCl2, 2 mm CaCl2, 1.25 mm NaH2PO4, 25 mm NaHCO3, 25 mm d-(+)-glucose, bubbled with 95%O2/5%CO2). Brain tissue was embedded in 3% low melting point agarose in ACSF and 250-300 µm coronal vibratome sections were generated. Sections were transferred on Millicell-CM slice culture inserts (Millipore) and cultured in cortical slice culture medium (66% BME, 25% Hanks, 5% FBS, 1% N-2, 1% penicillin, streptomycin and glutamine, all Invitrogen, and 0.66% d-(+)-glucose, Sigma-Aldrich). High titer gfp labeled lentivirus was applied directly to slices that were then cultured at 37° C., 5% CO2, 8% O2 for ~ 96 h. For time-lapse imaging, cultures were then transferred to an inverted Leica TCS SP5 with an on-stage incubator streaming 5% CO2, 5% O2, balance N2 into the chamber. Slices were imaged for GFP using a 10x objective at 15-30 min intervals for up to 3 d with repositioning of the z-stacks every ~12 h. Movies were analyzed with Imaris.
# PTPRZ1 and its ligand, PTN, are identified in this disclosure as necessary for tumor invasion and viability. It was tested whether the expression of PTPRZ1 is required for the role of oRG-like cells in glioblastoma invasion using genetic and pharmacologic approaches. Previous work has linked PTPRZ1 and PTN with the Rho/Rho-kinase (ROCK) signaling pathway in glioblastoma. […] Given that the functional significance of key oRG markers such as PTPRZ1 remains unknown, and the role of MST has not been previously described in glioblastoma, the role of PTPRZ1/PTN signaling in oRG cell behavior was studied. shRNA mediated knock down of both PTPRZ1 and PTN in oRG cells was used during normal human development and the impact on MST was monitored. […] To relate these findings to invasive behavior, in vitro invasion assays were performed on PDX tumor samples treated with either control, scrambled shRNAs, PTPRZ1 shRNAs, or Rock inhibitor to inhibit MST.
Substance,PTPRZ1 protein knockdown (PTPRZ1),"proportion of radial glia and other progenitor populations ([1]; 1 week after lentiviral infection, vs scrambled hairpin)",expression of other key markers of radial glia identity ([1]; radial glia populations),"Proliferation, difference shScr (Ctrl) vs shPTPRZ1 (KD) [2]",invasive behavior of the PDX tumors [3],length of MST (somal translocation length) [4],length of MST (somal translocation length) (oRG cells),"somal translocation length (oRG cells; primary samples, 3 biological replicates and 4 technical replicates each (FIG. 6A))"
"PTPRZ1 shRNA: short hairpin RNA against PTPRZ1 mRNA, lentivirus-delivered; exemplary sequence SEQ ID NO: 5 (CCGGCCAGACAACAAGCACAAGAATCTCGAGATTCTTGTGCTTGTTGTCTGGTTTTT)",validates protein knockdown,decrease in the proportion of both radial glia and other progenitor populations,down-regulated,not significant,significantly decreased the invasive behavior,similarly impacted the length of MST; also recorded: decrease the length of somal translocation length,significantly reduced the length of MST; also recorded: decrease the length of somal translocation length,decrease the length of somal translocation length
"PTN shRNA: short hairpin RNA knocking down PTN, the ligand of PTPRZ1; exemplary sequence SEQ ID NO: 6 (CCGGAGGCAAGAAACAGGAGAAGATCTCGAGATCTTCTCCTGTTTCTTGCCTTTTTT)",–,–,–,–,–,–,significantly reduced the length of MST; also recorded: decrease the length of somal translocation length,–
